In brackets after ≈: the same amount, converted by molar mass.
What was measured:
Format in all cases: cell-based
Staph. aureus (FDA 209P) = experiment: MIC, agar dilution, Staph. aureus; conditions: Staphylococcus aureus, FDA209P, 20 h, read-out: Minimum Inhibitory Concentration (MIC)
Description: (§1) The compounds of this invention were tested for antibacterial activity according to the following procedure. Nutrient broth and nutrient agar were prepared according to the conventional procedure. […] was used as a vehicle. The stock solution was prepared at 100 μg/ml of the test material in the vehicle. Two-fold dilutions were made with the vehicle and then the diluted stock solution was added to a petri dish and solidified by chilling. Test organisms were grown in the nutrient broth for 20 hours at 37° C. The hardened surface was inoculated with a loopful of the test organism solution containing 1×10^6 cells per milliliter and incubated for 20 hours at 37° C. At the end of this period, growth of the organism was observed. […] The following Table 1 summarizes the activity of representative compounds as active antibacterial agents, and compares them with the prior art compounds and the reference drug Sulbenicillin.

E. coli (NIHJ) = experiment: MIC, agar dilution, E. coli; conditions: Escherichia coli, 20 h, read-out: Minimum Inhibitory Concentration (MIC)
Description: as §1

[1] = tested on: Proteus vulgaris (IFO 3045); experiment: MIC, agar dilution, Proteus vulgaris; conditions: Proteus vulgaris, IFO3045, 20 h, read-out: Minimum Inhibitory Concentration (MIC)
Description: as §1

[2] = tested on: Proteus mirabilis (IFO 3849); experiment: MIC, agar dilution, Proteus mirabilis; conditions: Proteus mirabilis, IFO3849, 20 h, read-out: Minimum Inhibitory Concentration (MIC)
Description: as §1

[3] = tested on: Proteus morgani (IFO 3848); experiment: MIC, agar dilution, Proteus morgani; conditions: Morganella morganii, IFO3848, 20 h, read-out: Minimum Inhibitory Concentration (MIC)
Description: as §1

[4] = tested on: Salmonella typhimurium (TA 100); experiment: MIC, agar dilution, Salmonella typhimurium; conditions: Salmonella enterica; Salmonella typhimurium TA 100, ampicillin resistant strain; nutrient agar, 20 hours at 37° C.; read-out: Minimum Inhibitory Concentration (MIC)
Description: as §1

Pseudomonas aeruginosa = experiment: MIC, agar dilution, Pseudomonas aeruginosa (strain not given); conditions: ATCC 15691 / ATCC 15692, 20 h, read-out: Minimum Inhibitory Concentration (MIC)
Description: as §1

[5] = tested on: Klebsiella pneumoniae (ATCC 25955); experiment: MIC, agar dilution, Klebsiella pneumoniae; conditions: Klebsiella pneumoniae, ATCC25955, 20 h, read-out: Minimum Inhibitory Concentration (MIC)
Description: as §1

[6] = tested on: Pseudomonas aeruginosa M-11; experiment: MIC, agar dilution, Pseudomonas aeruginosa M-11; conditions: 20 h, read-out: Minimum Inhibitory Concentration (MIC)
Description: as §1
^*1 streptomycin resistant strain derived from Pseudomonas aeruginosa

[7] = tested on: Pseudomonas aeruginosa M-12; experiment: MIC, agar dilution, Pseudomonas aeruginosa M-12; conditions: ATCC15692, 20 h, read-out: Minimum Inhibitory Concentration (MIC)
Description: as §1
^*2 chloramphenicol resistant strain derived from Pseudomonas

[8] = tested on: Pseudomonas aeruginosa M-16; experiment: MIC, agar dilution, Pseudomonas aeruginosa M-16; conditions: M16, 20 h, read-out: Minimum Inhibitory Concentration (MIC)
Description: as §1
^*3 streptomycin, chloramphenicol and mercury resistant strain derive

[9] = tested on: Pseudomonas aeruginosa (ATCC 15691); experiment: MIC, agar dilution, Pseudomonas aeruginosa ATCC 15691; conditions: ATCC15691, 20 h, read-out: Minimum Inhibitory Concentration (MIC)
Description: as §1

`CC1(C)S[C@@H]2[C@H](NC(=O)[C@H](NC(=O)C3NCc4ccccc43)c3ccccc3)C(=O)N2[C@H]1C(=O)O` (stereo partly drawn) [Compound 14] gave an MIC (Staph. aureus (FDA 209P)) of 0.31 µg/mL (≈ 0.627 µM).

`CC1(C)S[C@@H]2[C@H](NC(=O)[C@H](NC(=O)[C@H]3CCCCN3C(N)=O)c3ccccc3)C(=O)N2[C@H]1C(=O)O` [Compound 10] showed an MIC (Staph. aureus (FDA 209P)) of 0.31 µg/mL (≈ 0.616 µM).

With `CN[C@H](CC(C)C)C(=O)N[C@@H](C(=O)N[C@@H]1C(=O)N2[C@@H]1SC(C)(C)[C@@H]2C(=O)O)c1ccccc1` [Compound 27] the MIC (Staph. aureus (FDA 209P)) was 0.62 µg/mL (≈ 1.3 µM).

In the case of `CC1(C)S[C@@H]2[C@H](NC(=O)[C@H](NC(=O)[C@H]3CCCN3C(=O)OCc3ccccc3)c3ccccc3)C(=O)N2[C@H]1C(=O)O` [Compound 2, potassium 6-[D-2-(N-benzyloxycarbonyl-D-prolyl)amino-2-phenylacetamido]penicillanatemonohydrate], the MIC (Staph. aureus (FDA 209P)) is reported as 1.25 µg/mL.

Work on `Cc1ccc(S(=O)(=O)N(C)[C@H](C)C(=O)N[C@@H](C(=O)N[C@@H]2C(=O)N3[C@@H]2SC(C)(C)[C@@H]3C(=O)O)c2ccccc2)cc1` [Compound 17] yielded an MIC (Staph. aureus (FDA 209P)) of 0.15 µg/mL (≈ 0.255 µM), an MIC (E. coli (NIHJ)) of 25 µg/mL (≈ 42.5 µM) and an MIC [1] of 12.5 µg/mL (≈ 21.2 µM). For the same compound, the MIC [2] was 12.5 µg/mL (≈ 21.2 µM), the MIC [3] was 9 µg/mL (≈ 15.3 µM) and the MIC [4] was 12.5 µg/mL (≈ 21.2 µM). The MIC (Pseudomonas aeruginosa) was 25 µg/mL (≈ 42.5 µM).

For `CC1(C)S[C@@H]2[C@H](NC(=O)[C@H](NC(=O)C3CCCCN3)c3ccccc3)C(=O)N2[C@H]1C(=O)O` (stereo partly drawn) [Compound 13], the MIC (Staph. aureus (FDA 209P)) was 3.75 µg/mL (≈ 8.14 µM).

Compound `CN[C@H](C)C(=O)N[C@@H](C(=O)N[C@@H]1C(=O)N2[C@@H]1SC(C)(C)[C@@H]2C(=O)O)c1ccccc1` [Compound 20] has an MIC (Staph. aureus (FDA 209P)) of 1.87 µg/mL (≈ 4.3 µM), an MIC (E. coli (NIHJ)) of 25 µg/mL (≈ 57.5 µM) and an MIC [1] of 6.2 µg/mL (≈ 14.3 µM). For the same compound, the MIC [2] was 9.3 µg/mL (≈ 21.4 µM), the MIC [3] was 9.3 µg/mL (≈ 21.4 µM) and the MIC (Pseudomonas aeruginosa) was 37.5 µg/mL (≈ 86.3 µM).

Compound `CN(C(=O)OCc1ccccc1)[C@@H](C(=O)N[C@@H](C(=O)N[C@@H]1C(=O)N2[C@@H]1SC(C)(C)[C@@H]2C(=O)O)c1ccccc1)c1ccccc1` [Compound 25] has an MIC (Staph. aureus (FDA 209P)) of 3.62 µg/mL (≈ 5.74 µM), an MIC (E. coli (NIHJ)) of 50 µg/mL (≈ 79.3 µM) and an MIC [1] of 25 µg/mL (≈ 39.6 µM). For the same compound, the MIC [2] was 25 µg/mL (≈ 39.6 µM), the MIC [3] was 25 µg/mL (≈ 39.6 µM) and the MIC [4] was 12.5 µg/mL (≈ 19.8 µM).

`CC1(C)S[C@@H]2[C@H](NC(=O)[C@H](NC(=O)[C@@H]3CCCN3C(=O)OCc3ccccc3)c3ccc(O)cc3)C(=O)N2[C@H]1C(=O)O` [Compound 6] showed an MIC (Staph. aureus (FDA 209P)) of 1.25 µg/mL (≈ 2.09 µM).

Compound `CC1(C)S[C@@H]2[C@H](NC(=O)[C@H](NC(=O)C3Cc4ccccc4CN3)c3ccccc3)C(=O)N2[C@H]1C(=O)O` (stereo partly drawn) [Compound 16] has an MIC (Staph. aureus (FDA 209P)) of 0.46 µg/mL (≈ 0.904 µM).

In the case of `CC1(C)S[C@@H]2[C@H](NC(=O)[C@H](NC(=O)[C@H]3CCCCN3)c3ccccc3)C(=O)N2[C@H]1C(=O)O` [Compound 12], the MIC (Staph. aureus (FDA 209P)) is reported as 1.25 µg/mL (≈ 2.71 µM).

`Cc1ccc(S(=O)(=O)N(C)[C@H](C)C(=O)N[C@@H](C(=O)N[C@@H]2C(=O)N3[C@@H]2SC(C)(C)[C@@H]3C(=O)O)c2ccc(O)cc2)cc1` [Compound 18] showed an MIC (Staph. aureus (FDA 209P)) of 0.31 µg/mL (≈ 0.513 µM).

For `CC1(C)S[C@@H]2[C@H](NC(=O)[C@H](NC(=O)[C@H]3Cc4ccccc4CN3)c3ccccc3)C(=O)N2[C@H]1C(=O)O` [Compound 15], the MIC (Staph. aureus (FDA 209P)) was 0.3 µg/mL (≈ 0.59 µM), the MIC (E. coli (NIHJ)) was 25 µg/mL (≈ 49.2 µM) and the MIC [1] was 25 µg/mL (≈ 49.2 µM). The MIC [2] was 25 µg/mL (≈ 49.2 µM), the MIC [3] was 25 µg/mL (≈ 49.2 µM) and the MIC [5] was 25 µg/mL (≈ 49.2 µM). It also gave an MIC [6] of 25 µg/mL (≈ 49.2 µM), an MIC [7] of 25 µg/mL (≈ 49.2 µM) and an MIC [8] of 25 µg/mL (≈ 49.2 µM). The MIC [9] was 50 µg/mL (≈ 98.3 µM).

`Cc1ccc(S(=O)(=O)N(C)[C@@H](C(=O)N[C@@H](C(=O)N[C@@H]2C(=O)N3[C@@H]2SC(C)(C)[C@@H]3C(=O)O)c2ccccc2)c2ccccc2)cc1` [Compound 26] was tested, and the MIC (Staph. aureus (FDA 209P)) was 0.62 µg/mL (≈ 0.953 µM).

Source: patent publication US4220587A, “Amino acid derivatives of 6-(2-amino-2-arylacetamido)penicillanic acids” (Mitsubishi Chemical Industries, Limited, priority 1975, dated 1980)
